In brackets after ≈: the same amount, converted by molar mass.
What was measured:
[1] = cited from earlier work
[2] = tested on: J-Lat 10.6 cells; assay: In vitro latent HIV activation, J-Lat 10.6 cell line assay (GFP expression); format: cell-based; details: 50 nM, without vaults, positive control, 48 hrs, N=3, ±1 SD
Method: (§1) FIGS. 10A, 10B, and 10C: FIG. 10A) In vitro latent HIV activation using bryostatin 1 sequestered in AH1 vault complexes compared to empty vault complexes on J-Lat 10.6 cells for 48 hrs. In these assays 50 nM of byrostatin 1 (without vaults) was used as a positive control and induced GFP expression in 30.6% (±0.6%) of cells. Error bars indicate ±1 SD (N=3). NS not significant, **p<0.0001 empty vault vs. Vault+Byrostatin 1 (2-sided t-test). FIG. 10B) In vitro stimulation of CD69 HIV provirus latency activation biomarker using bryostatin 1 sequestered in AH1 vault complexes compared to empty vault complexes on primary human PBMCs for 24 hrs. Positive control stimulations with 50 nM of byrostatin 1 compound (without vaults) induced CD69 expression in 69.4% (±31.3%) of cells. Error bars indicate ±1 SD (N=4 different cell donors). […]
(§2) Bryostatin 1 is an effective HIV therapeutic as it activates latent HIV provirus that remains within cellular reservoirs. […] The bryostatin 1 sequestered within AH1 vault complex (bryostatin/AH1) was assessed in vitro and in vivo for the ability to activate latent HIV provirus. […] When tested for activity in this way, bryostatin/AH1 activated CD69 expression in primary human PBMC obtained from 4 different donors in a dose dependent manner with stimulation occurring at concentrations as low as 0.1 ng/μL AH1 vault complex as analyzed by flow cytometry (FIG. 10B).

[3] = tested on: primary human PBMCs; assay: In vitro stimulation of CD69 HIV provirus latency activation biomarker, flow cytometry; format: cell-based; details: 50 nM, without vaults, positive control, 24 hrs, N=4 donors, ±1 SD
Method: as §1, §2

SMILES: CC1=C(/C=C/C(C)=C/C=C/C(C)=C/C(=O)O)C(C)(C)CCC1 [ATRA, All-trans Retinoic Acid]
- aqueous solubility (in words) [1]: aqueous insoluble

SMILES: NC(=O)c1[nH]c2ccc(Cl)cc2c1S(=O)(=O)c1ccccc1 [CSIS, 5-chloro-3-phenylsulfonylindole-2-carboxamide]
- solubility in water [1]: 1.4 µg/mL (≈ 4.18 µM)

SMILES: CCC/C=C/C=C/C(=O)O[C@H]1/C(=C/C(=O)OC)C[C@H]2C[C@H]([C@@H](C)O)OC(=O)C[C@H](O)C[C@@H]3C[C@H](OC(C)=O)C(C)(C)[C@](O)(C[C@@H]4C/C(=C/C(=O)OC)C[C@H](/C=C/C(C)(C)[C@]1(O)O2)O4)O3 [Bryostatin 1]
- cells with induced GFP expression [2]: 30.6%
- cells with induced CD69 expression [3]: 69.4%

SMILES: COc1cccc2c1C(=O)c1c(O)c3c(c(O)c1C2=O)C[C@@](O)(C(=O)CO)C[C@@H]3O[C@H]1C[C@H](N)[C@H](O)[C@H](C)O1 [Doxorubicin]
- solubility in water [1]: over 50 mg/mL

Reference: patent US10676534B2, “Vaults engineered for hydrophobic drug delivery” (priority 2013, dated 2020)
